Measured values published in US7157481B2 (priority 1997, dated 2007).

Key:
[1] = tested on: caterpillars of the diamond-back moth (Plutella xylostella); test: Plutella Test; type: in vivo; details: cabbage leaves dipped, 0.1 % by weight active compound; after 7 days
Description: (§1) To produce a suitable preparation of active compound, 1 part by weight of active compound is mixed with the stated amounts of solvent and emulsifier, and the concentrate is diluted with water to the desired concentration.
Cabbage leaves (Brassica oleracea) are treated by being dipped into the preparation of active compound of the desired concentration and populated with caterpillars of the diamond-back moth (Plutella xylostella) while the leaves are still moist.
After 7 days, the kill is determined and expressed in per cent. An efficacy of 100% means that all caterpillars have been killed, while an efficacy of 0% means that none of the caterpillars have been killed.

[2] = log P determination by HPLC (EEC Directive 79/831 Annex V. A8, gradient method); type: physicochemical; details: acetonitrile/0.1% aqueous phosphoric acid
Venturia inaequalis = test: Venturia Test (Apple)/protective; type: in vivo; details: young apple plants sprayed at 100 g/ha, protective; evaluation 12 days after inoculation
Description: Venturia Test (Apple)/protective
as §1
To test for protective activity, young plants are sprayed with the preparation of active compound at the stated application rate. After the spray coating has dried on, the plants are inoculated with an aqueous conidia suspension of the causative organism of apple scab Venturia inaequalis and then remain in an incubation cabin at approximately 20° C. and 100% relative atmospheric humidity for 1 day.
The plants are then placed in a greenhouse at approximately 21° C. and a relative atmospheric humidity of approximately 90%.
Evaluation is carried out 12 days after the inoculation. 0% means an efficacy which corresponds to that of the control, while an efficacy of 100% means that no infection is observed.

Leptosphaeria nodorum = Leptosphaeria nodorum Test (Wheat)/protective; type: in vivo; details: young wheat plants sprayed at 250 g/ha, protective; evaluation 10 days after inoculation
Description: Leptosphaeria nodorum Test (Wheat)/protective
as §1
To test for protective activity, young plants are sprayed with the preparation of active compound at the stated application rate. After the spray coating has dried on, the plants are sprayed with a spore suspension of Leptosphaeria nodorum. The plants remain in an incubation cabin at 20° C. and 100% relative atmospheric humidity for 48 hours.
The plants are then placed in a greenhouse at a temperature of approximately 15° C. and a relative atmospheric humidity of 80%.
Evaluation is carried out 10 days after the inoculation. 0% means an efficacy which corresponds to that of the control, while an efficacy of 100% means that no infection is observed.

[3] = tested on: larvae of the mustard beetle (Phaedon cochleariae); test: Phaedon Larvae Test; type: in vivo; details: cabbage leaves dipped, 0.1 % by weight active compound; after 7 days
Description: as §1
Cabbage leaves (Brassica oleracea) are treated by being dipped into the preparation of active compound of the desired concentration and populated with larvae of the mustard beetle (Phaedon cochleariae) while the leaves are still moist.
After 7 days, the kill is determined and expressed in per cent. An efficacy of 100% means that all beetle larvae have been killed, while an efficacy of 0% means that no beetle larvae have been killed.

Structure (SMILES) | Kill in % after 7 d [1] | melting point | other results
CCN(CC)Cc1ccc(CNC(=O)c2snc(Cl)c2Cl)cc1 [Example 14] | 100% |  | chromatographic logP [2]: 1.39
Cc1ccc(NC(=O)c2snc(Cl)c2Cl)c(C)c1 |  | 171 to 172 °C | 
O=C(Nc1ccccc1-c1ccccc1)c1snc(Cl)c1Cl [Example 21] | 100% | 83 to 84 °C (dec.) | 
CC(C)(C)c1ccc(CCNC(=O)c2snc(Cl)c2Cl)cc1 [Example 4] | 100% |  | chromatographic logP [2]: 4.81
O=C(NCCc1cccc(Oc2ccc(Cl)cc2)c1)c1snc(Cl)c1Cl [Example 6] |  |  | Efficacy in % (Venturia inaequalis): 96%; chromatographic logP [2]: 4.79
CCC(C)c1ccc(NC(=O)c2snc(Cl)c2Cl)cc1 (stereo not drawn) [Example 16] |  | 83 to 85 °C | Efficacy in % (Leptosphaeria nodorum): 81%
O=C(NCCc1ccc(-c2ccc(Cl)cc2)cc1)c1snc(Cl)c1Cl [Example 23] | 100% | 135 to 136 °C | 
CC(C)(C)c1ccc(NC(=O)c2snc(Cl)c2Cl)cc1 [Example 3] |  | 148 to 149 °C | Kill in % after 7 d [3]: 100%
CC(C)(C)CSCc1ccc(NC(=O)c2snc(Cl)c2Cl)cc1 |  | 91 to 92 °C | 
CN(C=O)CNC(=O)c1snc(Cl)c1Cl |  | 87 to 88 °C | 
O=C(NCCOS(=O)OCCNC(=O)c1snc(Cl)c1Cl)c1snc(Cl)c1Cl |  | 70 to 75 °C | 
O=C(Nc1ccccc1C1CCCCCC1)c1snc(Cl)c1Cl [Example 20] | 100% | 122 to 125 °C | 
CCC(CC)c1ccc(NC(=O)c2snc(Cl)c2Cl)cc1 |  | 98 to 99 °C | 
